Like-named read-outs stand apart in the source and are kept apart here.
What was measured:
[1] = molecular target: T1, full-length beta-Catenin (Uniprot ID P35222) (Homo sapiens, UniProt P35222); assay: Fluorescence polarization IC50 (beta-catenin / 5FAM-TCF4 10-53 competition); type: binding
T1 construct: 10 nM full-length beta-Catenin (Uniprot ID P35222)
T1 sequence (P35222 1-781): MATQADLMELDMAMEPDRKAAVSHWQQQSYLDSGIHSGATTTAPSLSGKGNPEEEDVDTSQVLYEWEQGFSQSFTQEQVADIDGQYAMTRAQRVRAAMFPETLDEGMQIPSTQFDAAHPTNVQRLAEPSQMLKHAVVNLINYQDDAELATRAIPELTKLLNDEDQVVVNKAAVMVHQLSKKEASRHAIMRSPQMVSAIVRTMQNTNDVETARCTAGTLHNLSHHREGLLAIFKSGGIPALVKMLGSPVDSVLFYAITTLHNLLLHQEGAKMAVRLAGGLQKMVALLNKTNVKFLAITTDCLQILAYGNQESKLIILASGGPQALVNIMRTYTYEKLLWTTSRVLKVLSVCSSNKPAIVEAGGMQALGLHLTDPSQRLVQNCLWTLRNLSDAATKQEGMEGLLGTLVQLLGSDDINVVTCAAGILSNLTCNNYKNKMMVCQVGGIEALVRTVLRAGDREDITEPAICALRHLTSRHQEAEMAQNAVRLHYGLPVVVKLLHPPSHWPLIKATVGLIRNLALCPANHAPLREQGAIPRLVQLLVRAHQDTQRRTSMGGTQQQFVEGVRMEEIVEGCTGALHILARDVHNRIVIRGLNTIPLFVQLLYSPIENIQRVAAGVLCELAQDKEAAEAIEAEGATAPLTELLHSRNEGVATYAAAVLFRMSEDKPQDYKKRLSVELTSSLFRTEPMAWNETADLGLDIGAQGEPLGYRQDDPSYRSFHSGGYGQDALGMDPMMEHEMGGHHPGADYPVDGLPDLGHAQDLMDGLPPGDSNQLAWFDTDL

[2] = molecular target: T2, beta-catenin/TCF4 engagement (Homo sapiens, UniProt P35222); assay: Nano-BRET target engagement assay (B-cat-Halo & TCF4-Luc in HEK293 cells); type: cell-based; conditions: read-out: NanoBRET Abs IC50
T2 construct: expressed in transfected cells; host or cells: HEK293
T2 sequence (P35222 1-781): T1 sequence (P35222 1-781)

[3] = fluorescence polarization; read-out: beta-Catenin FP IC50

## CC(=O)N1CCC[C@]12CC=CCCCC1(CCCC=CCCCCCC[C@@](C)(C(=O)N[C@@H](Cc3ccccc3C(F)(F)F)C(=O)N[C@@H](Cc3csc4ccccc34)C(=O)N[C@@H](CCC(N)=O)C(N)=O)NC(=O)[C@H](CCO)NC(=O)[C@H](Cc3ccccc3)NC(=O)[C@H](C)NC(=O)[C@H](C)NC(=O)[C@H](CC(=O)O)NC(=O)[C@H](CC(=O)O)NC1=O)NC(=O)[C@H](CC(C)(C)C)NC(=O)[C@H](CC(=O)O)NC2=O (stereo partly drawn) [I-1397, Ac-PL3-Asp-Npg-B5-Asp-Asp-Ala-Ala-Phe-Hse-S8-2F3MeF-BztA-Gln-NH2]
[1]; [3]
  IC50: 48 nM
[2]; absolute IC50
  IC50: 16400 nM

## CC(=O)N1CCC[C@]12CC=CCCCC1(CCCC=CCCCOC(=O)N3CC[C@@](C(=O)N[C@@H](Cc4ccsc4)C(=O)N[C@@H](Cc4csc5ccccc45)C(=O)N[C@@H](C)C(N)=O)(C3)NC(=O)[C@H](Cc3ccccc3)NC(=O)[C@H](Cc3ccccc3)NC(=O)[C@H](C)NC(=O)[C@H](CCC(N)=O)NC(=O)[C@H](Cc3cccc(C(=O)O)c3)NC(=O)[C@H](CC(=O)O)NC1=O)NC(=O)[C@H](CC(C)(C)C)NC(=O)[C@H](CC(=O)O)NC2=O (stereo partly drawn) [I-2052, Ac-PL3-Asp-Npg-B5-Asp-3COOHF-Gln-Ala-Phe-Phe-PyrS2-3Thi-BztA-Ala-NH2]
[1]; [3]
  IC50: 12 nM
[2]
  IC50: 6000 nM

## CC(=O)N1CCC[C@]12CC=CCCCC1(CCCC=CCCCOC(=O)N3CC[C@@](C(=O)N[C@@H](Cc4ccsc4)C(=O)N[C@@H](Cc4csc5ccccc45)C(=O)N[C@H](C)C(N)=O)(C3)NC(=O)[C@H](CC(C)C)NC(=O)[C@H](Cc3ccccc3)NC(=O)[C@H](C)NC(=O)[C@H](C)NC(=O)[C@H](Cc3cccc(C(=O)O)c3)NC(=O)[C@H](CC(=O)O)NC1=O)NC(=O)[C@H](CC(C)(C)C)NC(=O)[C@H](CC(=O)O)NC2=O (stereo partly drawn) [I-2090, Ac-PL3-Asp-Npg-B5-Asp-3COOHF-Ala-Ala-Phe-Leu-PyrS2-3Thi-BztA-dAla-NH2]
[1]; [3]
  IC50: 11 nM
[2]
  IC50: 5900 nM

## CC(=O)N1CCC[C@]12CC=CCCCC1(CCCC=CCCCOC(=O)N3CC[C@@](C(=O)N[C@@H](Cc4ccccc4Cl)C(=O)N[C@@H](Cc4csc5ccccc45)C(=O)N[C@@H](CCCN4CCOCC4)C(N)=O)(C3)NC(=O)[C@H]([C@@H](C)O)NC(=O)[C@H](Cc3ccccc3)NC(=O)[C@H](C)NC(=O)[C@H](C)NC(=O)[C@H](CN(CC(=O)O)CC(F)(F)F)NC(=O)[C@H](CC(=O)O)NC1=O)NC(=O)[C@H](CC(C)(C)C)NC(=O)[C@H](CC(=O)O)NC2=O (stereo partly drawn) [I-1609, Ac-PL3-Asp-Npg-B5-Asp-TfeGA-Ala-Ala-Phe-Thr-PyrS2-2C1F-BztA-MorphNva-NH2]
[1]; [3]
  IC50: 15 nM
[2]; absolute IC50
  IC50: 6700 nM

## CC(=O)N1CCC[C@]12CC=CCCCC1(CCCC=CCCCOC(=O)N3CC[C@@](C(=O)N[C@@H](Cc4ccccc4C(F)(F)F)C(=O)N[C@@H](Cc4csc5ccccc45)C(=O)N[C@@H](CCC(N)=O)C(=O)N[C@@H](CC(C)C)C(=O)N[C@H](C(N)=O)C(C)C)(C3)NC(=O)[C@H](CC(C)C)NC(=O)[C@H](Cc3ccccc3)NC(=O)[C@H](C)NC(=O)[C@H](C)NC(=O)[C@H](Cc3cccc(C(=O)O)c3)NC(=O)[C@H](CC(=O)O)NC1=O)NC(=O)[C@H](CC(C)(C)C)NC(=O)[C@H](CC(=O)O)NC2=O (stereo partly drawn) [I-2379, Ac-PL3-Asp-Npg-B5-Asp-3COOHF-Ala-Ala-Phe-Leu-PyrS2-2F3MeF-BztA-Gln-Leu-Val-NH2]
[1]; [3]
  IC50: 246 nM
[2]; absolute IC50
  IC50: 5000 nM

## CC(=O)N1CCC[C@]12CC=CCCCC1(CCCC=CCCCOC(=O)N3CC[C@@](C(=O)N[C@@H](Cc4ccsc4)C(=O)N[C@@H](Cc4csc5ccccc45)C(=O)N[C@@H](CCC(N)=O)C(N)=O)(C3)NC(=O)[C@H](CC(C)C)NC(=O)[C@H](Cc3ccccc3)NC(=O)[C@H](C)NC(=O)[C@H](C)NC(=O)[C@H](CC(=O)O)NC(=O)[C@H](CC(=O)OCCSSc3ccccc3)NC1=O)NC(=O)[C@H](CC(C)(C)C)NC(=O)[C@H](CC(=O)O)NC2=O (stereo partly drawn) [I-1954, Ac-PL3-Asp-Npg-B5-[EtSSPh]AspE-Asp-Ala-Ala-Phe-Leu-PyrS2-3Thi-BztA-Gln-NH2]
[1]; read-out: beta-Catenin FP IC50; fluorescence polarization
  IC50: 994 nM
[2]
  IC50: > 20000 nM

## CC(=O)N1CCC[C@]12CC=CCCCC1(CCCC=CCCCOC(=O)N3CC[C@@](C(=O)N[C@@H](Cc4ccsc4)C(=O)N[C@@H](Cc4csc5ccccc45)C(=O)N[C@@H](CCC(N)=O)C(N)=O)(C3)NC(=O)[C@H](CC(N)=O)NC(=O)[C@H](Cc3cccc(C(=O)O)c3)NC(=O)[C@H](C)NC(=O)[C@H](C)NC(=O)[C@H](Cc3c[nH]cn3)NC(=O)[C@H](CC(=O)O)NC1=O)NC(=O)[C@H](CC(C)(C)C)NC(=O)[C@H](CC(=O)O)NC2=O (stereo partly drawn) [I-2118, Ac-PL3-Asp-Npg-B5-Asp-His-Ala-Ala-3COOHF-Asn-PyrS2-3Thi-BztA-Gln-NH2]
[1]; [3]
  IC50: 21 nM
[2]
  IC50: > 20000 nM

## CCCC[C@@H]1NC(=O)[C@H](CN(CC(=O)O)CC(F)(F)F)NC(=O)[C@H](CC(=O)O)NC(=O)C2(CCCC=CCCCOC(=O)N3CC[C@@](C(=O)N[C@@H](Cc4ccccc4Cl)C(=O)N[C@@H](Cc4csc5ccccc45)C(=O)N[C@@H](CCC(N)=O)C(N)=O)(C3)NC(=O)[C@H]([C@@H](C)O)NC(=O)[C@H](Cc3ccccc3)NC(=O)CNC1=O)CCCC=CC[C@]1(CCCN1C(C)=O)C(=O)N[C@@H](CC(=O)O)C(=O)N[C@@H](CC(C)(C)C)C(=O)N2 (stereo partly drawn) [I-1695, Ac-PL3-Asp-Npg-B5-Asp-TfeGA-nLeu-Gly-Phe-Thr-PyrS2-2C1F-BztA-Gln-NH2]
[1]; [3]
  IC50: 93 nM
[2]; absolute IC50
  IC50: > 20000 nM

## CC(=O)N1CCC[C@]12CC=CCCCC1(CCCC=CCCCOC(=O)N3CC[C@@](C(=O)N[C@@H](CC4CCC4)C(=O)N[C@@H](Cc4csc5ccccc45)C(=O)N[C@@H](CO)C(N)=O)(C3)NC(=O)[C@H](CC(C)C)NC(=O)[C@H](Cc3ccccc3)NC(=O)[C@H](C)NC(=O)[C@H](C)NC(=O)[C@H](Cc3cccc(C(=O)O)c3)NC(=O)[C@H](CC(=O)O)NC1=O)NC(=O)[C@H](CC(C)(C)C)NC(=O)[C@H](CC(=O)O)NC2=O (stereo partly drawn) [I-1898, Ac-PL3-Asp-Npg-B5-Asp-3COOHF-Ala-Ala-Phe-Leu-PyrS2-Cba-BztA-Ser-NH2]
[1]; [3]
  IC50: 22 nM
[2]
  IC50: 10900 nM

## CC(=O)N1CCC[C@]12CC=CCCCC1(CCCC=CCCCOC(=O)N3CC[C@@](C(=O)N[C@@H](Cc4ccccc4)C(=O)N[C@@H](Cc4csc5ccccc45)C(=O)N[C@@H](CCO)C(N)=O)(C3)NC(=O)[C@H](CC(N)=O)NC(=O)[C@H](Cc3ccccc3)NC(=O)[C@H](C)NC(=O)[C@H](CCCCNC(C)C)NC(=O)[C@H](CCC(N)=O)NC(=O)[C@H](CC(=O)O)NC1=O)NC(=O)[C@H](CC1CCCCC1)NC(=O)[C@H](CC(N)=O)NC2=O (stereo partly drawn) [I-2167, Ac-PL3-Asn-Cha-B5-Asp-Gln-iPrLys-Ala-Phe-Asn-PyrS2-Phe-BztA-Hse-NH2]
[1]; [3]
  IC50: 199 nM
[2]
  IC50: > 20000 nM

## CC(=O)N1CCC[C@]12CC=CCCCC1(CCCC=CCCCOC(=O)N3CC[C@@](C(=O)N[C@@H](Cc4ccccc4Cl)C(=O)N[C@@H](Cc4csc5ccccc45)C(=O)N[C@H](C)C(N)=O)(C3)NC(=O)[C@H](C)NC(=O)[C@H](Cc3ccccc3)NC(=O)[C@H](C)NC(=O)[C@H](C)NC(=O)[C@H](Cc3cccc(C(=O)O)c3)NC(=O)[C@H](CC(=O)O)NC1=O)NC(=O)[C@H](CC(C)(C)C)NC(=O)[C@H](CC(=O)O)NC2=O (stereo partly drawn) [I-2026, Ac-PL3-Asp-Npg-B5-Asp-3COOHF-Ala-Ala-Phe-Ala-PyrS2-2C1F-BztA-dAla-NH2]
[1]; [3]
  IC50: 26 nM
[2]
  IC50: 9700 nM

— patent US20240116985A1, “STAPLED PEPTIDES AND METHODS THEREOF” (priority 2020, published 2024)
